Where a name gives a salt, the structure may show the parent alone. Read-outs that look alike come from different tables or passages of the source.
Key:
L-type calcium channel = biological target: T1, L-type calcium channel (Rattus norvegicus, UniProt P22002); assay: Competition binding of [3H]nitrendipine to membrane fragments of rat cardiac muscle
T1 construct: membrane fragments of rat cardiac muscle; from tissue; host or cells: rat cardiac muscle membranes

[1] = biological target: T2, α1C Human Adrenergic Receptor (Homo sapiens, UniProt P35348); assay: Radioligand binding, [3H]prazosin, cloned human α1C adrenergic receptor; conditions: for Ki: read-out: pKi alpha-1 1c (converted)
T2 construct: The entire coding region of α1C (1401 bp); expressed in transfected cells
T2 sequence (P35348 1-466): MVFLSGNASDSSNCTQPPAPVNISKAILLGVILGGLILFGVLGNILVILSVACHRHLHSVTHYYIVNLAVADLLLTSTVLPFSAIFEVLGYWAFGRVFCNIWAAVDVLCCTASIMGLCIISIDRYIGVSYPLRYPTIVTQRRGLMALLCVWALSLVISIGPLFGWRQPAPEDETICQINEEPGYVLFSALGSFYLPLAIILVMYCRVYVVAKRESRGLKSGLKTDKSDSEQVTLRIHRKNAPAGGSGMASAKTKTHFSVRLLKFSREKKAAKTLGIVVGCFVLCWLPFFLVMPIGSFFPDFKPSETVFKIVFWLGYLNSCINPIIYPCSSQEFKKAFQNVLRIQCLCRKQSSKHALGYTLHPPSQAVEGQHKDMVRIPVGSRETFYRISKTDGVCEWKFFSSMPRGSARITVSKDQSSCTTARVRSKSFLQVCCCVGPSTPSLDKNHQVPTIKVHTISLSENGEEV
Summary of the method: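 LM(tk−) membranes (stable human α1C); [3H]prazosin 0.5 nM; 37° C., 20 min; Tris-HCl 50 mM/MgCl2 1 mM/ascorbate 0.1%, pH 7.5; NSB 10 μM phentolamine; GF/B filtration.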

[2] = biological target: T3, α1A Human Adrenergic Receptor (Homo sapiens, UniProt P25100); assay: Radioligand binding, [3H]prazosin, cloned human α1A adrenergic receptor; conditions: for Ki: read-out: pKi alpha-1 1a (converted)
T3 construct: The entire coding region of α1A (1719 bp); expressed in transfected cells
T3 sequence (P25100 1-572): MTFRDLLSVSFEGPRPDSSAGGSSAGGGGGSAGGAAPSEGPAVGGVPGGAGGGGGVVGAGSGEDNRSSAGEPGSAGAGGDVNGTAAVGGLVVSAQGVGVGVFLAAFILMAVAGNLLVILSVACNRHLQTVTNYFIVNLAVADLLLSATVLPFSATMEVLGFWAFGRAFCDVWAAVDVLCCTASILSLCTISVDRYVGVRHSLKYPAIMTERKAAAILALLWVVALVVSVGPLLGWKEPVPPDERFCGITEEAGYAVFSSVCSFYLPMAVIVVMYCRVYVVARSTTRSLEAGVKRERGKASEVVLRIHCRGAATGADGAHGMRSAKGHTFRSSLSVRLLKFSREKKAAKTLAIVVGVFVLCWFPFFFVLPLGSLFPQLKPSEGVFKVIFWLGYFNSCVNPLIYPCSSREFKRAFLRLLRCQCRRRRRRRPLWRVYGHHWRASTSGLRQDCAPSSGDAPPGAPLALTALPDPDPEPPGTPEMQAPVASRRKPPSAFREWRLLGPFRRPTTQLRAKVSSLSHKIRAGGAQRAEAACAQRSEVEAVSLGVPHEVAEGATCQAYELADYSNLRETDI
Summary of the method: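 Competition binding used membrane preparations of transfected LM(tk−) cells and the α1 antagonist [3H]prazosin at 0.5 nM, incubated 20 min at 37° C in Tris-HCl buffer, pH 7.5.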

[3] = cloned human receptor in LM(tk-) cell membranes, SEM and n in lines below
[4] = [3H]nitrendipine, rat cardiac muscle membranes, SEM and n in lines below, read-out: pKi Ca (converted)
[5] = [3H]prazosin, cloned human receptor in LM(tk-) cell membranes, SEM and n in lines below
[6] = [3H]nitrendipine, rat cardiac muscle membranes, SEM and n in lines below
[7] = [3H]nitrendipine, rat cardiac muscle membrane fragments, L-type calcium channel
[8] = cloned human α1C receptor, LM(tk−) cell membranes
[9] = [3H]prazosin, cloned human α1A receptor, LM(tk−) cell membranes

T1 sequence (P22002 whole entry, other chains not shown, the tested form may be a part): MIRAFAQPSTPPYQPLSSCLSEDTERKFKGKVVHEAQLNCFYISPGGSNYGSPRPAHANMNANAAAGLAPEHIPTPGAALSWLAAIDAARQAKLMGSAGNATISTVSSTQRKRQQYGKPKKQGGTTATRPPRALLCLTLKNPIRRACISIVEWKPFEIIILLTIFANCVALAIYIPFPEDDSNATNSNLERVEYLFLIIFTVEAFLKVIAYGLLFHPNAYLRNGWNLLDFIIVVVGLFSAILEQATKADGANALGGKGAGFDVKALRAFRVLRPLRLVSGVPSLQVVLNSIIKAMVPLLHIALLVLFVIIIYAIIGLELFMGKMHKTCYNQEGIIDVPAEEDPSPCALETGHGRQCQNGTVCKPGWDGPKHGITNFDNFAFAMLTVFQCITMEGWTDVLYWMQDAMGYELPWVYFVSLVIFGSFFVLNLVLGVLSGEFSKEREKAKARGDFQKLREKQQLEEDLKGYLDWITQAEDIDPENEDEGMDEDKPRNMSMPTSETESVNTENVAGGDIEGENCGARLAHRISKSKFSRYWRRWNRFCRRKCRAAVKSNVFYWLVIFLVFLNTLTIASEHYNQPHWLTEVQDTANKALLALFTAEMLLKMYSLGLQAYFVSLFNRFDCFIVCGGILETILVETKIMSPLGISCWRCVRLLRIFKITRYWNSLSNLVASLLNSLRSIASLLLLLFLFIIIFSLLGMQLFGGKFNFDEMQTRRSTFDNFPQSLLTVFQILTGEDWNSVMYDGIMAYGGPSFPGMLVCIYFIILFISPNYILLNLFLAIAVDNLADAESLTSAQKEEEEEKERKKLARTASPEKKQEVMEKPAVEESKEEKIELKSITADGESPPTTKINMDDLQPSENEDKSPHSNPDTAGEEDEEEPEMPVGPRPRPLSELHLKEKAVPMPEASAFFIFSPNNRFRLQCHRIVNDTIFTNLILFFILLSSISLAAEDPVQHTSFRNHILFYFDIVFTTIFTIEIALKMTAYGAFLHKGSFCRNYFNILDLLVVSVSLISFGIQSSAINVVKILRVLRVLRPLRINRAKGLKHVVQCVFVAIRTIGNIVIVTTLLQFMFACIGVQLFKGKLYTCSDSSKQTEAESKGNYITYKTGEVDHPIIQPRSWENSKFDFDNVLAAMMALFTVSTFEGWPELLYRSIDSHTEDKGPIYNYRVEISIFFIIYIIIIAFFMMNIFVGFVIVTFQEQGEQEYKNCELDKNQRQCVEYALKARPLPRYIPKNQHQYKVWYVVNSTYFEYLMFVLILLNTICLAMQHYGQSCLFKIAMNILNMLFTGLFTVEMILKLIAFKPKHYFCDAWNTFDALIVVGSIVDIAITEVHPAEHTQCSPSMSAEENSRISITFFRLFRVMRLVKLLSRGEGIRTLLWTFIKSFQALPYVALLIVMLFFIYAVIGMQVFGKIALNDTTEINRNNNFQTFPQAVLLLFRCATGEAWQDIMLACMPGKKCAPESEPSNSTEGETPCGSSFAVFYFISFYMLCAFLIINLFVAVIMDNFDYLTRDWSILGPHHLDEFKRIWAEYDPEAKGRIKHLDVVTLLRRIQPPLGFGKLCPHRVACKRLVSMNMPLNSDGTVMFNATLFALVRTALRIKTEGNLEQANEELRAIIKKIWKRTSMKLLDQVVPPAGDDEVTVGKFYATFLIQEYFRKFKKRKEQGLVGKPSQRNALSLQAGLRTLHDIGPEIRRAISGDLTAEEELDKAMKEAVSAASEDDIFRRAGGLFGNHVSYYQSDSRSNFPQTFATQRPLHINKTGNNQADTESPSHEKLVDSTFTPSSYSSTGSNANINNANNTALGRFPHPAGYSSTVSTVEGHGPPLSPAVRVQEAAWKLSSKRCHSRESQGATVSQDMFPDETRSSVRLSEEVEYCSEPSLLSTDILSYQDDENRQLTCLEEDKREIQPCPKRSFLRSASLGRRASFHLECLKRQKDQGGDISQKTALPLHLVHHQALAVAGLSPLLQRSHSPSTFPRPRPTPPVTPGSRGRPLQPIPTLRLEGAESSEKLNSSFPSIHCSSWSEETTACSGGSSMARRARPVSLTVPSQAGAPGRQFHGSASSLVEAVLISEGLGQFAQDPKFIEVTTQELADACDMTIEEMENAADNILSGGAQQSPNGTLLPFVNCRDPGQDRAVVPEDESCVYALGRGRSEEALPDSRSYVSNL
T1 sequence (P54290 25-944 partner limits assumed, other chains not shown): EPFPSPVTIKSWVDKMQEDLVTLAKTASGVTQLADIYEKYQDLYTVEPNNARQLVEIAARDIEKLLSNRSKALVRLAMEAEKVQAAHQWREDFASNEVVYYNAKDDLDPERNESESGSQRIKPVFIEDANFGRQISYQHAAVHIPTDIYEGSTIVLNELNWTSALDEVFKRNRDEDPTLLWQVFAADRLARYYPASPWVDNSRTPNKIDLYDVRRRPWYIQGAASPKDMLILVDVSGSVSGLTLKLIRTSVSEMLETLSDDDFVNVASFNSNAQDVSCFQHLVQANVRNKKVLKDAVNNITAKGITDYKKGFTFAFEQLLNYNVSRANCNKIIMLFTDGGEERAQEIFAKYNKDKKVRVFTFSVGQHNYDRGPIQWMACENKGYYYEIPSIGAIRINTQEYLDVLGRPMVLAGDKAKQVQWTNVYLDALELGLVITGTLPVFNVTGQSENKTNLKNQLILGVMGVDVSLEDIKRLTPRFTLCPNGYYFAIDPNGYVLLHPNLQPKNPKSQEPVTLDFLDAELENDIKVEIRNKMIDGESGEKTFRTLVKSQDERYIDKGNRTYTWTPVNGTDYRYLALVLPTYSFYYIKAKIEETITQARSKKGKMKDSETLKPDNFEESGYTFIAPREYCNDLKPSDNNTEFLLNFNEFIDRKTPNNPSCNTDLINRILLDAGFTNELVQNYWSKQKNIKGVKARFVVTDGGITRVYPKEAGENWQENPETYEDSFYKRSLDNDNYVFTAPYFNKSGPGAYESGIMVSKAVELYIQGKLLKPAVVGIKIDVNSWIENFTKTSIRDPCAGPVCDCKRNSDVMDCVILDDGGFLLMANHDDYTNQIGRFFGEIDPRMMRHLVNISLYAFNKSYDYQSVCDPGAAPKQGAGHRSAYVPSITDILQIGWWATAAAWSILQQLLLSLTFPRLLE
T1 sequence (P54290 945-1091 partner limits assumed, other chains not shown): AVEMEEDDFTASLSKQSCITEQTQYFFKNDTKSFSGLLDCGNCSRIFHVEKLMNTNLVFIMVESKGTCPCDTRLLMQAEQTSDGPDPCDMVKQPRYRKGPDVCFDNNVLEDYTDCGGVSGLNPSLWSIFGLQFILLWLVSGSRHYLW

CNC(=O)C1=C(C)NC(C)=C(C(=O)NCCCN2CCC(c3ccccc3)(c3ccccc3)CC2)C1c1ccc([N+](=O)[O-])cc1 (stereo not drawn) [Example 38, 1,4-Dihydro-2,6-dimethyl-5-(N-methyl)carboxamido-4-(4-nitrophenyl)-3-{N-[3-(4,4-diphenylpiperidin-1-yl)propyl]}carboxamidopyridine]
Ki (L-type calcium channel; pKi Ca): 7.08 µM
pKi alpha-1 1c [1, 3]: 8.50
pKi alpha-1 1a [2]: 6.21

CC(=O)C1=C(C)NC(C)=C(C(=O)NCCCN2CCC(c3ccccc3)(c3ccccc3)CC2)C1c1ccc([N+](=O)[O-])cc1 (stereo not drawn) [Example 47, 5-Acetyl-1,4-dihydro-2,6-dimethyl-4-(4-nitrophenyl)-3-{N-[3-(4,4-diphenylpiperidin-1-yl)propyl]}carboxamidopyridine]
Ki (L-type calcium channel; [4]): 17.8 µM
pKi alpha-1 1c [1, 3]: 8.93
pKi alpha-1 1a [2, 5]: 6.29

COC(=O)C1=C(C)NC(C)=C(C(=O)OCCCN2CCC(c3ccccc3)CC2)C1c1ccc([N+](=O)[O-])cc1 (stereo not drawn) [Example 48, 1,4-Dihydro-5-methazycarbonyl-2,6-dimethyl-4-(4-nitrophenyl)-3-[3-(4-phenylpiperidin-1-yl)propoxy]}carbonylpyridine hydrochloride hydrate]
Ki (L-type calcium channel; [4]): 0.479 µM
Ki [1, 3]: 0.000525 µM
Ki [2, 5]: 0.00977 µM

COC(=O)C1=C(C)NC(C)=C(C(=O)OCCCN2CCCCC2)C1c1ccc([N+](=O)[O-])cc1 (stereo not drawn) [Example 50, 1,4-Dihydro-5-methoxycarbonyl-2,6-dimethyl-4-(4-nitrophenyl)-3-[3-(piperidin-1-yl)propoxy]carbonylpyridine hydrochloride etherate]
Ki (L-type calcium channel; [4]): 9.55 µM
Ki [1, 3]: 0.0851 µM
Ki [2, 5]: 1.95 µM

COC(=O)C1=C(C)NC(C)=C(C(=O)NCCCN2CCCCC2)C1c1ccc([N+](=O)[O-])cc1 (stereo not drawn) [Example 51, 1,4-Dihydro-3-methoxycarbonyl-2,6-dimethyl-4-(4-nitrophenyl)-5-{N-[3-(piperidin-1-yl)propyl]}carboxamidopyridine hydrochloride etherate]
Ki (L-type calcium channel; [4]): 1000 µM
Ki [1, 3]: 0.479 µM
Ki [2, 5]: 9.77 µM

COC(=O)C1=C(C)NC(C)=C(C(=O)NCCCCN2CCC(c3ccccc3)(c3ccccc3)CC2)C1c1ccc([N+](=O)[O-])cc1.Cl.O (stereo not drawn) [Example 53, 1,4-Dihydro-3-methoxycarbonyl-2,6-dimethyl-4-(4-nitrophenyl)-5-{N-[4-(4,4-diphenylpiperidin-1-yl)butyl]}carboxamidopyridine hydrochloride hydrate]
pKi Ca (L-type calcium channel; [6]): 5.54
pKi alpha-1 1c [1, 3]: 7.83
pKi alpha-1 1a [2, 5]: 6.49

COC(=O)C1=C(C)NC(C)=C(C(=O)NCCCN2CCc3cc(OC)c(OC)cc3C2)C1c1ccc([N+](=O)[O-])cc1 (stereo not drawn) [Example 57, 1,4-Dihydro-3-methoxycarbonyl-5-{N-[3-(1,2,3,4-tetrahydro-6,7-dimethoxyisoquinolin-2-yl)propyl]}carboxamido-2,6-dimethyl-4-(4-nitrophenyl)pyridine hydrochloride hydrate]
Ki (L-type calcium channel; [4]): 1000 µM
Ki [1, 3]: 0.603 µM
Ki [2, 5]: 1.62 µM

COc1cc2c(cc1OC)CN(CCCNC(=O)C1=C(C)NC(C)=C(C(N)=O)C1c1ccc([N+](=O)[O-])cc1)CC2 (stereo not drawn) [Example 58, 5-Carboxamido-1,4-dihydro-3-{N-[3-(1,2,3,4-tetrahydro-6,7-dimethoxyisoquinolin-2-yl)propyl]}carboxamido-2,6-dimethyl-4-(4-nitrophenyl)pyridine hydrochloride]
Ki (L-type calcium channel; [4]): 166 µM
Ki [1, 3]: 0.331 µM
Ki [2, 5]: 3.02 µM

COC(=O)C1=C(C)NC(c2ccoc2)=C(C(=O)NCCCN2CCC(c3ccccc3)CC2)C1c1ccc([N+](=O)[O-])cc1 (stereo not drawn) [Example 65, 2-(Furan-3-yl)-1,4-dihydro-5-methoxycarbonyl-6-methyl-4-(4-nitrophenyl)-5-{N-[3-(4-phenylpiperidin-1-yl)propyl]}carboxamidopyridine hydrochloride hydrate]
Ki (L-type calcium channel; [4]): 3.09 µM
Ki [1, 3]: 0.00105 µM
Ki [2, 5]: 0.129 µM

CC1=C(C(N)=O)C(c2ccc([N+](=O)[O-])cc2)C(C(=O)NC2CCN(Cc3ccccc3)CC2)=C(c2ccoc2)N1.Cl.O (stereo not drawn) [Example 66]
pKi Ca (L-type calcium channel; [6]): 6.22
pKi alpha-1 1c [1, 3]: 6.59
pKi alpha-1 1a [2, 5]: 5.45

CCC1=C(C(=O)NCCCN2CCC(c3ccccc3)CC2)C(c2ccc([N+](=O)[O-])cc2)C(C(=O)OC)=C(C)N1 (stereo not drawn) [Example 74, 2-Ethyl-1,4-dihydro-5-methoxycarbonyl-6-methyl-4-(4-nitro)phenyl-3-(N-(3-(4-phenylpiperidin-1-yl)propyl)) carboxamidopyridine hydrochloride hydrate]
Ki (L-type calcium channel; [4]): 5.25 µM
Ki [1, 3]: 0.000501 µM
Ki [2, 5]: 0.0589 µM

CCC1=C(C(=O)NC2CCN(Cc3ccccc3)CC2)C(c2ccc([N+](=O)[O-])cc2)C(C(=O)OC)=C(C)N1 (stereo not drawn) [Example 75, 2-Ethyl-1,4-dihydro-5-methoxycarbonyl-6-methyl-4-(4-nitro)phenyl-3-(N-(N-phenylmethyl)piperidin-4-yl)carboxamidopyridine hydrochloride]
Ki (L-type calcium channel; [4]): 3.55 µM
Ki [1, 3]: 0.794 µM
Ki [2, 5]: 4.37 µM

CCC1=C(C(=O)NCCCN2CCc3cc(OC)c(OC)cc3C2)C(c2ccc([N+](=O)[O-])cc2)C(C(N)=O)=C(C)N1.Cl.O (stereo not drawn) [Example 76, 5-Carboxamido-2-ethyl-1,4-dihydro-3-(N-(3-(1,2,3,4-tetrahydro-6,7-dimethoxyisoquinolin-2-yl)propyl)) carboxamido-6-methyl-4-(4-nitro)phenylpyridine hydrochloride hydrate]
pKi Ca (L-type calcium channel; [6]): 5.49
pKi alpha-1 1c [1, 3]: 6.63
pKi alpha-1 1a [2, 5]: 5.89

CCC1=C(C(=O)NCCCCN2CCC(c3ccccc3)CC2)C(c2ccc([N+](=O)[O-])cc2)C(C(N)=O)=C(C)N1.Cl.O (stereo not drawn) [Example 77, 5-Carboxamido-2-ethyl-1,4-dihydro-6-methyl-4-(4-nitro)phenyl-3-(N-(4-(4-phenylpiperidin-1-yl)butyl))carboxamidopyridine hydrochloride hydrate]
pKi Ca (L-type calcium channel; [6]): 5.94
pKi alpha-1 1c [1, 3]: 8.30
pKi alpha-1 1a [2, 5]: 6.83

COC(=O)C1=C(C)NC(c2ccccc2)=C(C(=O)NCCCN2CCC(c3ccccc3)CC2)C1c1ccc([N+](=O)[O-])cc1.Cl (stereo not drawn) [Example 79, 1,4-Dihydro-5-methoxycarbonyl-6-methyl-4-(4-nitro)phenyl-2-phenyl-3-(N-(3-(4-phenylpiperidin-1-yl)propyl)) carboxamidopyridine hydrochloride]
pKi Ca (L-type calcium channel; [6]): 6.17
pKi alpha-1 1c [1, 3]: 7.76
pKi alpha-1 1a [2, 5]: 6.99

CCOC(=O)C1=C(CNCCCN2CCC(c3ccccc3)(c3ccccc3)CC2)NC(C)=C(C(=O)OC)C1c1ccc([N+](=O)[O-])cc1.Cl.O (stereo not drawn) [Example 90, 3-Ethoxycarbonyl-1,4-dihydro-5-methoxycarbonyl-6-methyl-4-(4-nitro)phenyl-2-(N-(3-(4,4,-diphenylpiperidin-1-yl)propyl)amino)methylpyridine, hydrochloride hydrate]
pKi Ca (L-type calcium channel; [7]): 6.63
pKi alpha-1 1c [1, 8]: 7.56
pKi alpha-1 1a [2, 9]: 6.52

COC(=O)C1=C(C)NC2=C(C(=O)N(CCCN3CCC(c4ccccc4)(c4ccccc4)CC3)C2)C1c1ccc([N+](=O)[O-])cc1.Cl.O (stereo not drawn) [Example 91, 1,4,7,7-Tetrahydro-3-methoxycarbonyl-6-methyl-5-oxo-4-(4-nitrophenyl)-6-(3-(4,4-diphenylpiperidin-1-yl)) propylpyrrolo[3,4-b]pyridine, hydrochloride hydrate]
pKi Ca (L-type calcium channel; [7]): 6.55
pKi alpha-1 1c [1, 8]: 8.04
pKi alpha-1 1a [2, 9]: 6.29

Source: US6608086B2, “Dihydropyridines and new uses thereof” (Synaptic Pharmaceutical Corporation, priority 1993, dated 2003)
